In the NIST ThermoML archive (doi:10.1021/je0497303):

Experiment: xn = mol fraction of the nth substance listed
Settings: 101.3 kPa, Liquid, Taylor dispersion method

ClC(Cl)(Cl)Cl [tetrachloromethane] + CCCO
298.15 K
Settings	binary diffusion coefficient [m2/s]
x2 = 0	1.61e-09
x2 = 0.03	8.3e-10
x2 = 0.1	6.1e-10
x2 = 0.3	3.9e-10
x2 = 0.5	4.6e-10
x2 = 0.7	6.6e-10
x2 = 0.9	8.3e-10
x2 = 0.97	9.1e-10
x2 = 1	9.5e-10

Cc1ccccc1 [toluene] + CCO
binary diffusion coefficient [m2/s]
Settings	x2 = 0	x2 = 0.03	x2 = 0.1	x2 = 0.3	x2 = 0.5	x2 = 0.7	x2 = 0.9	x2 = 0.97	x2 = 1
298.15 K	3.12e-09	2.94e-09	2.41e-09	1.22e-09	9.8e-10	1.16e-09	1.55e-09	1.7e-09	1.74e-09
308.15 K	3.61e-09	3.4e-09	2.9e-09	1.7e-09	1.35e-09	1.59e-09	1.89e-09	2.04e-09	2.11e-09

ClC(Cl)(Cl)Cl [tetrachloromethane] + CCO
binary diffusion coefficient [m2/s]
Settings	x2 = 0	x2 = 0.03	x2 = 0.1	x2 = 0.3	x2 = 0.5	x2 = 0.7	x2 = 0.9	x2 = 0.97	x2 = 1
298.15 K	1.9e-09	1.06e-09	8.2e-10	6.4e-10	7.3e-10	9.9e-10	1.32e-09	1.43e-09	1.47e-09
303.15 K	2.15e-09	1.6e-09	9.9e-10	8.3e-10	8.7e-10	1.14e-09	1.45e-09	1.56e-09	1.61e-09
308.15 K	2.24e-09	1.8e-09	1.1e-09	9.5e-10	9.9e-10	1.28e-09	1.6e-09	1.76e-09	1.82e-09

CCCCCC [hexane] + CCCO
298.15 K
Settings	binary diffusion coefficient [m2/s]
x2 = 0	5.2e-09
x2 = 0.03	3.37e-09
x2 = 0.1	2.17e-09
x2 = 0.3	1.38e-09
x2 = 0.5	1.15e-09
x2 = 0.7	1.08e-09
x2 = 0.9	1.09e-09
x2 = 0.97	1.03e-09
x2 = 1	1.02e-09

C1CCCCC1 [cyclohexane] + CCO
298.15 K
Settings	binary diffusion coefficient [m2/s]
x2 = 0.03	9.9e-10
x2 = 0.1	7.7e-10
x2 = 0.3	4.3e-10
x2 = 0.5	4.6e-10
x2 = 0.7	7.3e-10
x2 = 0.9	1.23e-09
x2 = 0.97	1.41e-09

Cc1ccccc1 [toluene] + CCCO
298.15 K
Settings	binary diffusion coefficient [m2/s]
x2 = 0	2.67e-09
x2 = 0.03	2.37e-09
x2 = 0.1	1.81e-09
x2 = 0.3	1e-09
x2 = 0.5	8.5e-10
x2 = 0.7	1.01e-09
x2 = 0.9	1.28e-09
x2 = 0.97	1.4e-09
x2 = 1	1.46e-09

ClC(Cl)(Cl)Cl [tetrachloromethane] + CCCCO
binary diffusion coefficient [m2/s]
Settings	x2 = 0	x2 = 0.03	x2 = 0.1	x2 = 0.3	x2 = 0.5	x2 = 0.7	x2 = 0.9	x2 = 0.97	x2 = 1
298.15 K	1.47e-09	7e-10	5e-10	2.9e-10	3.2e-10	5.4e-10	6.5e-10	6.9e-10	7.2e-10
308.15 K	1.74e-09	9.3e-10	7.1e-10	5.2e-10	5.6e-10	6.5e-10	8e-10	8.9e-10	9.4e-10

C1CCCCC1 [cyclohexane] + CCCO
298.15 K
Settings	binary diffusion coefficient [m2/s]
x2 = 0.03	8.3e-10
x2 = 0.1	6.6e-10
x2 = 0.3	3.9e-10
x2 = 0.5	4.2e-10
x2 = 0.7	6.5e-10
x2 = 0.9	1e-09
x2 = 0.97	1.15e-09

CO [methanol] + O
298.15 K
Settings	binary diffusion coefficient [m2/s]
x1 = 0	1.57e-09
x1 = 0.1	1.22e-09
x1 = 0.3	9.5e-10
x1 = 0.5	1.03e-09
x1 = 0.7	1.37e-09
x1 = 0.9	1.87e-09
x1 = 0.97	2.05e-09

CCCCCC [hexane] + CCO
298.15 K
Settings	binary diffusion coefficient [m2/s]
x2 = 0	5.74e-09
x2 = 0.03	4.07e-09
x2 = 0.1	2.41e-09
x2 = 0.3	1.54e-09
x2 = 0.5	1.3e-09
x2 = 0.7	1.3e-09
x2 = 0.9	1.43e-09
x2 = 0.97	1.54e-09
x2 = 1	1.6e-09

CCO [ethanol] + O
298.15 K
Settings	binary diffusion coefficient [m2/s]
x1 = 0.1	7e-10
x1 = 0.2	4.1e-10
x1 = 0.3	3.8e-10
x1 = 0.5	5.1e-10
x1 = 0.7	7.6e-10
x1 = 0.9	1.08e-09
